Molecules are shown by their SMILES. Read-outs that look alike come from different tables or passages of the source.

The values that follow come from patent publication US6395785B1 (Orion Corporation, priority 1998, dated 2002).

In assay [1] the test system is estrogen-induced increase in uterine weight. The procedure:
(§1) The estrogenic/antiestrogenic activity of the study drug was tested by measuring the effect on the uterine weight in immature (18 days old) female Sprague-Dawley rats. The compound was given p.o. in a PEG-solution for 3 days (n=5/group). At the same time the ability of the study drug to inhibit estrogen-induced increase in uterine weight was studied in rats given estradiol 50 μg/kg s.c. Comparison was made with the corresponding Z-isomer.

Assay [2] has as its system uterine weight in immature female Sprague-Dawley rats. To be noted: for Average uterine weight (weight after mere E2-treatment was taken as 1.00): drug alone. As for the experimental part:
as §1

A further assay has as its system Hep G2 cell cultures. Conditions: for Cholesterol biosynthesis level (% of control): 2 hours, Hep G2; for Effect on cholesterol biosynthesis (in words): in vitro cell culture system, 0.01 to 10 micromolar. As for the experimental part: The effects on cholesterol biosynthesis was studied in vitro in Hep G2 cell cultures using ^14C-acetate as cholesterol precursor. The test compound was added into the culture medium at concentrations from 0.01 to 10 micromolar. After 2 hours the culture was stopped and the newly synthesized cholesterol was quantitated by thin-layer chromatography. Comparison was made with the Z-isomer.

Assay [3] has as its system uterine weight in ovarectomized adult female Sprague-Dawley rats. Nature of the assay: Uterine weight in ovarectomized adult female rats. To be noted: for Relative uterine weight (control level taken as 1.00): ovarectomized rats. The format is in vivo.
Protocol: (§2) The effects on uterine weight and on serum cholesterol levels were studied in intact and ovarectomized adult female Sprague-Dawley rats. […] In the ovarectomy study the study drug was given p.o. at a daily dose of 0.1, 1 or 10 mg/kg for 4 weeks and comparison was made with the corresponding Z-isomer and estradiol (100 μg/kg). The serum cholesterol content was determined by an enzymatic method. In the ovarectomy study the serum cholesterol and cholesterol precursor molecule content was determined by gas-liquid chromatography.
The subject of assay [4] is serum cholesterol. Conditions: for Serum cholesterol content (control level taken as 1.00): ovarectomized rats; for Decrease of serum cholesterol level (maximum): ovarectomy study, over the doses tested.
Protocol: as §2
The test system of assay [5] is serum cholesterol precursor molecule. Conditions: ovarectomy study.
Protocol: as §2
The test system of assay [6] is uterine weight in intact adult female Sprague-Dawley rats. Nature of the assay: Uterine weight in intact adult female rats. To be noted: p.o. 3.17 mg/kg daily or equimolar dose, two weeks.
Protocol: as §2
Assay [7] concerns serum cholesterol. Nature of the assay: Serum cholesterol in intact adult female rats. To be noted: for Serum cholesterol content (control level taken as 1.00; mean ± SD, n = 3): intact rats, p.o. 3.17 mg/kg daily or equimolar dose, two weeks.
Protocol: as §2
The mark [8] stands for this setting: 0.1 mg/kg p.o. for 3 days + E2 (estradiol 50 μg/kg s.c.).
The mark [9] stands for this setting: 0.5 mg/kg p.o. for 3 days + E2 (estradiol 50 μg/kg s.c.).
Setting [10] is: 1 mg/kg p.o. for 3 days + E2 (estradiol 50 μg/kg s.c.).
Setting [11] is: 10 mg/kg p.o. for 3 days + E2 (estradiol 50 μg/kg s.c.).

As for `OCCOc1ccc(/C(=C(/CCCl)c2ccccc2)c2ccccc2)cc1` [1271a (Z), Z-2-[4-(4-chloro-1,2-diphenyl-but-1-enyl)phenoxy]ethanol], the “Average uterine weight (weight after mere E2-treatment was taken as 1.00)” value (“Average uterine weight” for short) in assay [1] (setting [8]) turned out to be 1.18; in assay [1] (setting [9]), 1.11; in assay [1] (setting [10]), 0.91; in assay [1] (setting [11]), 0.91; in assay [2] (0.1 mg/kg p.o. for 3 days), 0.27; in assay [2] (0.5 mg/kg p.o. for 3 days), 0.43. Moreover, the “Average uterine weight” value came to 0.53 in assay [2] (1 mg/kg p.o. for 3 days) and 0.75 in assay [2] (10 mg/kg p.o. for 3 days). Besides, the “Cholesterol biosynthesis level (% of control)” value in the assay on Hep G2 cell cultures (0.01 μM) was 143 % of control; with Hep G2 cell cultures (0.1 μM), 127 % of control; in the assay with Hep G2 cell cultures (1 μM), 129 % of control; in the assay with Hep G2 cell cultures (10 μM) it was 132 % of control. In addition, the “Effect on cholesterol biosynthesis (in words)” value in the assay with Hep G2 cell cultures is “had an opposite effect”. Further, the “Relative uterine weight (control level taken as 1.00)” value was 1.22 in assay [3] (0.1 mg/kg p.o. daily, 4 weeks); 1.78 in assay [3] (1 mg/kg p.o. daily, 4 weeks); 2.04 in assay [3] (10 mg/kg p.o. daily, 4 weeks). Moreover, the “Serum cholesterol content (control level taken as 1.00)” value was 0.90 in the assay on serum cholesterol [4] (0.5 mg/kg); 0.96 in the assay on serum cholesterol [4] (1 mg/kg p.o. daily, 4 weeks); 0.89 in the assay with serum cholesterol [4] (5 mg/kg); 0.66 with serum cholesterol [4] (10 mg/kg p.o. daily, 4 weeks). For the same compound, the “Decrease of serum cholesterol level (maximum)” value in the assay with serum cholesterol [4] is “up to 34%”. In addition, the “Effect on serum cholesterol precursor molecule level (in words)” value in assay [5] is “not”. For the same compound, the “Relative uterine weight (control level taken as 1.00; mean ± SD, n = 3)” value in assay [6] stood at 0.75 ± 0.06. Moreover, in the assay on serum cholesterol [7] (intact adult female rats, compared with the other drugs), the “Efficacy in decreasing serum cholesterol level (in words)” value was “less effective”. The “Serum cholesterol content (control level taken as 1.00; mean ± SD, n = 3)” value in the assay on serum cholesterol [7] turned out to be 0.65 ± 0.10.
With `OCCOc1ccc(/C(=C(\CCCl)c2ccccc2)c2ccccc2)cc1` [1271b (E), E-2-[4-(4-chloro-1,2-diphenyl-but-1-enyl)phenoxy]ethanol], the “Average uterine weight” value in assay [1] (setting [8]) stood at 0.81; in assay [1] (setting [9]), 0.82; in assay [1] (setting [10]), 0.57; in assay [1] (setting [11]) it was 0.83; in assay [2] (0.1 mg/kg p.o. for 3 days) it was 0.37; in assay [2] (0.5 mg/kg p.o. for 3 days), 0.45. Further, the “Average uterine weight” value worked out at 0.44 in assay [2] (1 mg/kg p.o. for 3 days) and 0.75 in assay [2] (10 mg/kg p.o. for 3 days). Moreover, the “Estrogenic and antiestrogenic effect compared to the corresponding Z-isomer (in words)” value in assay [2] (immature rat uterine weight test) was “approximately equal estrogenic and antiestrogenic effect”. The “Cholesterol biosynthesis level (% of control)” value in the assay on Hep G2 cell cultures (0.01 μM) is reported as 89 % of control; in the assay with Hep G2 cell cultures (0.1 μM), 90 % of control; in the assay on Hep G2 cell cultures (1 μM), 89 % of control; in the assay with Hep G2 cell cultures (10 μM) it was 84 % of control. In addition, the “Effect on cholesterol biosynthesis (in words)” value in the assay on Hep G2 cell cultures is listed as “inhibited slightly cholesterol biosynthesis”. Besides, the “Relative uterine weight (control level taken as 1.00)” value in assay [3] (0.1 mg/kg p.o. daily, 4 weeks) came to 1.54; in assay [3] (1 mg/kg p.o. daily, 4 weeks), 1.50; in assay [3] (10 mg/kg p.o. daily, 4 weeks), 1.53. The “Increase of relative uterus weight” value in assay [3] (ovarectomy study, 0.1, 1 or 10 mg/kg p.o., 4 weeks) turned out to be 1.5 fold. For the same compound, the “Serum cholesterol content (control level taken as 1.00)” value with serum cholesterol [4] (0.1 mg/kg p.o. daily, 4 weeks) worked out at 0.92; with serum cholesterol [4] (1 mg/kg p.o. daily, 4 weeks), 0.62; in the assay on serum cholesterol [4] (10 mg/kg p.o. daily, 4 weeks), 0.23. Further, in the assay on serum cholesterol [4], the “Decrease of serum cholesterol level (maximum)” value is listed as “up to 77%”. Besides, in assay [5], the “Effect on serum cholesterol precursor molecule level (in words)” value was “increased slightly”. The “Relative uterine weight (control level taken as 1.00; mean ± SD, n = 3)” value in assay [6] amounted to 0.85 ± 0.07. Moreover, the “Serum cholesterol content (control level taken as 1.00; mean ± SD, n = 3)” value in the assay on serum cholesterol [7] came to 0.43 ± 0.05.
With `C[C@]12CC[C@@H]3c4ccc(O)cc4CC[C@H]3[C@@H]1CC[C@@H]2O` [Estradiol], the “Increase of relative uterus weight” value in assay [3] (ovarectomy study, estradiol 100 μg/kg) is recorded as 3.3 fold. Besides, the “Relative uterine weight (control level taken as 1.00; mean ± SD, n = 3)” value in assay [6] is recorded as 1.29 ± 0.06. Further, the “Serum cholesterol content (control level taken as 1.00; mean ± SD, n = 3)” value in the assay with serum cholesterol [7] is 0.48 ± 0.09.
As for `O=C(c1ccc(OCCN2CCCCC2)cc1)c1c(-c2ccc(O)cc2)sc2cc(O)ccc12` [Raloxifene], the “Relative uterine weight (control level taken as 1.00; mean ± SD, n = 3)” value in assay [6] came to 0.77 ± 0.21. Moreover, the “Serum cholesterol content (control level taken as 1.00; mean ± SD, n = 3)” value in the assay with serum cholesterol [7] came to 0.48 ± 0.09.
Consider `CN(C)CCOc1ccc(/C(=C(/CCCl)c2ccccc2)c2ccccc2)cc1` [Toremifene (E)], for which, in assay [6], the “Relative uterine weight (control level taken as 1.00; mean ± SD, n = 3)” value is 1.09 ± 0.10. The “Serum cholesterol content (control level taken as 1.00; mean ± SD, n = 3)” value with serum cholesterol [7] is on record as 0.40 ± 0.18.
